Results taken from publication doi:10.1101/2025.04.10.648262, “Time-resolved phenotyping at subcellular resolution reveals shared principles and key trade-offs across antimicrobial peptide activities” (bioRxiv, 2026).
Read-outs that look alike come from different tables or passages of the source. Bridge positions count the residues as written; N and C are the ends. Square brackets hold non-standard residues; d marks the D form. Peptide text beside a SMILES is read from it. Nspe = C[C@H](NCC(=O)O)c1ccccc1; Nlys = NCCCCNCC(=O)O

Columns and labels:
E. coli (MG1655) = type: cell-based, Escherichia coli
Method: For all experiments and E. coli strains, cells were grown in a medium (M9gluCAAT) with M9 salts (33.7 mM Na2HPO4, 22mM KH2PO4, 8.55 mM NaCl, 9.35 mM NH4Cl), 0.2% (w/v) glucose, 0.4% (w/v) casamino acids, 1 mM MgSO4, 0.3 mM CaCl2, 1 μg/mL thiamine, and trace elements (13.4 mM ethylene-diamine-tetra-acetic-acid (EDTA), 3.1 mM FeCl3-6H2O, 0.62 mM ZnCl2, 76 μM CuCl2-2H2O, 42 μM CoCl2-2H2O, 162 μM H3BO3, 8.1 μM MnCl2-4H2O). Prior to every experiment, cells were first inoculated into M9gluCAAT and grown to stationary phase at 37°C. For all assays except the biofilm experiments, the culture was diluted to 1/10,000 or more in fresh medium and grown at 37°C until it reached an optical density at 600 nm (OD) of 0.2–0.4. For the biofilm experiments, cells were grown in M9gluCAAT supplemented with 100 μg/mL ampicillin to maintain the GFP-expressing plasmid. The overnight stationary-phase cultures were then diluted into the same medium to an OD of 0.015. See below for details on biofilm growth.
Except for the biofilm experiments, the strains used in this study were derived from MG1655 (ATCC 47076), which was used to estimate the minimum inhibitory concentration (MIC) for all the studied peptides (or peptoids) using a microplate reader (Figure 1A). To detect the timing of outer and inner membrane permeabilization to proteins, strain CJW7845 was constructed to carry two freely diffusing fluorescent proteins: mScarlet-I in the periplasm and mTagBFP2 in the cytoplasm. Construction of CJW7845 was done by transforming pBAD-mTagBFP2 plasmid (Addgene #34632, a gift from Vladislav Verkhusha; ([Subach et al., 2011])) into an E. coli strain expressing a periplasmic mScarlet-I reporter ([Cañas-Duarte 2021]), as previously described ([Chung et al., 1989]). Transformants were restreaked on fresh selection plates and confirmed via microscopy.
To determine the minimal inhibitory concentration (MIC) of the selected AMPs against either MG1655 or ATCC 25922 E. coli strains, exponentially growing cells were diluted in fresh medium to an OD = 10^−6 (~500 cells/mL) and mixed 50:50 with titrated AMP concentrations (which were chosen to be over a range that included the MIC) in a 96-well plate (flat bottom with low evaporation lid, 3595, Corning, Arizona, USA). A final OD of 5 × 10^−7 corresponds to ~250 cells/mL. OD curves were sampled every 5 min for a total of 48 h using a microplate reader (BioTek Synergy 2, Agilent Technologies Inc., California, USA). Raw data were exported as a text file and analysed using a custom-written Python script (microplate_reader_analysis.py). To measure maximum growth rates, the log(OD) was fitted using a linear regression over a 12-point moving window (60 min), which provides the instantaneous growth rate (log(OD)/h), from which the global maximum was computed. The MIC was defined as the minimum AMP concentration for which the maximum growth rate was < 0.2 log(OD)/h within the first 20 h of incubation. Each MIC experiment was performed independently at least three times (with at least two technical replicates each), and the mode across all replicates was taken as the final MIC; in the rare cases of a tie, an additional replicate was performed, which was sufficient to resolve it.

[1] = test system: CJW7753 cells in wide trenches; assay: Wide-trench microfluidics, growth inhibition of dense populations; type: cell-based, Escherichia coli; conditions: 2X MIC in feeding channel, 37°C, M9gluCAAT with 0.08% Pluronic
Text: The design of the wide-trench microfluidics was adapted from the one reported by ([Lambert & Kussell, 2014]). As reported before ([Lin & Jacobs-Wagner, 2022]), the master mold was manufactured in the clean room of the School of Engineering and Applied Science at Yale University. UV photolithography (EVG 620 Mask Aligner) was applied on Si wafers with SU-8 photoresist to generate two layers of positive patterns. The lower layer contained the bacterial culture chambers (wide trenches) while the upper layer contained the large trench for the flowing culture medium. The large feeding region features a ~200 μm width and ~30 μm height. The wide trenches have a width of 7 μm, a depth of ~34–38 μm, and a height of 1.29 μm.
A solution of 9:1 polydimethylsiloxane (PDMS) and curing agent was mixed, degassed to remove air bubbles, poured onto the silicon wafer, and cured at 64.5°C for > 3 h. Note that the 9:1 PDMS:curing agent ratio was used instead of the standard 10:1 to reduce the hydrophobicity of the PDMS and mitigate hydrophobic interactions with AMPs. Once hardened, PDMS chips were cut out from the wafer, and a 1.2 mm biopsy punch was used to create inlet and outlet holes. The current chip design features two independent channels per chip. To allow for a higher temperature during PDMS-glass bonding, the glass bottom part of the dish was used during the following steps (without the plastic support glued to it). […]
To analyse wide-trench time-lapse images, drift correction was first performed using OmniSegger, followed by a custom Python script (drift_correction_wide_trenches.py) to correct for the slow residual drift that remained after the first correction step. The resulting drift-corrected timelapse data were analysed with the OmniSegger pipeline using the ribosome-fluorescence wide-trench Omnipose model described above, allowing cell segmentation and cell linking to be performed in the same general manner as for the PDMS-microwell experiments. […]

Structure (SMILES) | MIC (mode MIC) (E. coli (MG1655); MG1655, 20 h) [µM] | Growth inhibition of dense cell population in wide trenches [1] | MIC (mode MIC) (E. coli (MG1655); E. coli MG1655, M9gluCAAT, 37°C, 20 h, inoculum ~250 cells/mL, max growth rate < 0.2 log(OD)/h, mode across three biological replicates with two technical replicates each) [µM]
CC[C@H](C)[C@@H]1NC(=O)CNC(=O)[C@H](CCCNC(=N)N)NC(=O)[C@H](Cc2ccc(O)cc2)NC(=O)[C@@H]2CSSC[C@H](NC1=O)C(=O)N[C@@H](Cc1ccc(O)cc1)C(=O)N[C@@H](CCCNC(=N)N)C(=O)N[C@@H](CCCNC(=N)N)C(=O)N[C@H](C(=O)N[C@@H](CCCNC(=N)N)C(N)=O)CSSC[C@H](NC(=O)[C@H](Cc1c[nH]c3ccccc13)NC(=O)[C@@H](N)CCCCN)C(=O)N[C@@H](Cc1ccccc1)C(=O)N[C@@H](CCCNC(=N)N)C(=O)N[C@@H](C(C)C)C(=O)N2 [Tac1, tachyplesin-1] (H-KWCFRVCYRGICYRRCR-NH2; disulfide 3-16, 7-12 (inferred); N-terminus assumed) | 0.6 | primarily inhibited the growth of cells near the top of the trenches | –
CC[C@@H](C)[C@@H](NC(=O)[C@@H](C)NC(=O)[C@@H](CCCNC(=N)N)NC(=O)[C@@H](Cc1c[nH]c2ccccc12)NC(=O)[C@@H](CCC(N)=O)NC(=O)[C@H](N)C(C)C)C(=O)N[C@H](CCCNC(=N)N)C(=O)N[C@@H](C(=O)N[C@H](CCCNC(=N)N)C(=O)N[C@@H](C(=O)N[C@@H](C(=O)N[C@H](CCCNC(=N)N)C(N)=O)[C@H](C)CC)C(C)C)C(C)C [DJK-5] (H-[dV][dQ][dW][dR][dA][dI][dR][dV][dR][dV][dI][dR]-NH2; N-terminus and C-terminus assumed) | 2.5 | able to inhibit cell growth throughout the entire wide trenches | –
C[C@@H](c1ccccc1)N(CC(N)=O)C(=O)CN(C(=O)CN(CCCCN)C(=O)CN(C(=O)CN(C(=O)CN(CCCCN)C(=O)CN(C(=O)CN(C(=O)CN(CCCCN)C(=O)CN(C(=O)CN(C(=O)CNCCCCN)[C@@H](C)c1ccccc1)[C@@H](C)c1ccccc1)[C@@H](C)c1ccccc1)[C@@H](C)c1ccccc1)[C@@H](C)c1ccccc1)[C@@H](C)c1ccccc1)[C@@H](C)c1ccccc1 [TM1] (H-[Nlys][Nspe][Nspe][Nlys][Nspe][Nspe][Nlys][Nspe][Nspe][Nlys][Nspe][Nspe]-NH2) | – | localized growth inhibition | 2.5
